Assay results taken from paper PMC11645267, “Novel pharmacologic inhibition of lysine-specific demethylase 1 as a potential therapeutic for glioblastoma” (Cancer Gene Therapy, 2024).

Tests used:
glioma stem cells (GSCs) = assay: Cell growth / viability in glioma stem cells; assay type: cell-based
From the text: Inhibition of LSD1 can effectively suppress stem-like tumor-propagating cells in human glioma.
Supplementary materials and methods
RNA-seq data of malignant glioma (n=157) and normal tissue (n=5) were obtained from TCGA (http://xena.ucsc.edu/).
Cell lines and culture conditions
Glioblastoma cell line, LN229, was obtained from the American Type Culture Collection (ATCC, Manassas, VA, USA). Normal fibroblast cell lines TIG3 and WI-38, TM31 (low grade glioma) were obtained from the RIKEN Bioresource Research Center (Tsukuba, Japan). Onda10 and KINGS1 (low grade glioma) cell lines were obtained from the Japanese Collection of Research Bioresources (Ibaraki, Japan). F3 is utilized as a neural stem cell line{Kim, 2004 #1412}{Natsume, 2013 #1009}. All cells were maintained in DMEM medium (Wako, Osaka, Japan) containing 5% fetal bovine serum (FBS, Thermo Fisher Scientific, Waltham, MA, USA) and 1% penicillin-streptomycin (Wako). Glioma stem cell lines (GSC1228, GSC316, and GSC222) were established previously{Natsume, 2013 #1009}{Katsushima, 2016 #1156}. […]
For the cell proliferation assay, cells at a density of 1 × 10^5 cells per well were seeded before treatment with LSD1 inhibitors. Cell proliferation was measured after 4 days using a Cell Counting Kit 8 (Dojindo, Kumamoto, Japan) according to the manufacturer ’s […]

GSC1228 = assay: Stemness / differentiation marker expression (qPCR, western blot); assay type: cell-based; settings: GSC1228, 5 μM, 96 h
From the text: Super-enhancers consist of enhancer clusters with abundant binding of transcription factors and are highly enriched with H3K27ac marks. The H3K4me2 increased regions included the MYC locus and H3K4me2 de novo regions comprised Nestin and SOX2 loci (Fig. 2F, Supplementary Fig. S5A). These regions were also identified as super-enhancers in GSCs using data from our previous study (Fig. 2F). Compared to the large increase in H3K4me2 in these regions, changes in H3K4me3 were subtle after S2172 treatment (only 2582 regions were acquired modification) (Fig. 2C). Increasing the me2/me3 ratio at H3K4 is associated with reduced gene expression.
A mRNA expression of stem cell marker genes following 96 h treatment of GSC1228 with S2172 (5 μM). The y-axis indicates the expression change relative to DMSO-treated cells. Error bar indicates the SD. *P < 0.05. B Left panel, western blot analysis of MYC, Nestin, and SOX2 after treatment of GSC1228 with either DMSO or S2172 (5 μM) for 96 h. β-actin (ACTB) was used as the loading control. Right panel, Quantification of band signal intensities from the western blot. C mRNA expression of the differentiation marker gene, GFAP, following treatment of GSC1228 with S2172 (5 μM) for 96 h. The y-axis indicates the expression change relative to DMSO-treated cells. Error bar indicates the SD. D PARP cleavage ratio after treatment of GSC1228, GSC222, and GSC316 with S2172 (5 μM). The ratio was calculated by dividing the cleaved-PARP band intensity by the full length-PARP band intensity. Error bar indicates the SD. *P < 0.05. E Representative Western blot results of RAPR after treatment of GSC1228, GSC222, and GSC316 with either DMSO or S2172 (5 μM) for 96 h. The full length-PARP band (106 kDa) and cleaved PARP band (89 kDa) are shown. β-actin (ACTB) was used as the loading control. n = 4. […]
instructions. For GSC cells, the CellTiter-Glo 3D Viability Assay (Promega, Madison, WI, USA) was used to measure the living cells. All proliferation experiments were repeated […]
The density of bands was quantified using ImageJ software (https://imagej.nih.gov/ij/). […]

NC1CCC(NC2CC2c2cc(F)cc(F)c2OCc2ccccc2)CC1 (centres unmarked) [S2172]
viability at 5 µM (glioma stem cells (GSCs); GSC cells, 5 μM, read-out: viable cells): < 80%
IC50 (glioma stem cells (GSCs); mean over glioma stem cells, read-out: mean half-maximal inhibitory concentration (IC50), cell growth in GSCs): 13.8 µM
mRNA level of stemness marker genes MYC, Nestin, SOX2 (GSC1228): significantly downregulated
protein level of MYC, Nestin, SOX2 (GSC1228): tended to be downregulated
transcription of astrocytic marker GFAP (GSC1228): did not transcriptionally induce
